Assay results taken from patent US9491941B2, “(Hetero) arylacrylamides for the control of ectoparasites” (Novartis Tiergesundheit AG, priority 2012, dated 2016).

System: Lepeophtheirus Salmonis at Copeodid Stage (sea lice copepodids)
Experiment: Activity in vitro against Lepeophtheirus salmonis at copepodid stage
Conditions: copepodids 1 hour contact in sea water, then 48 h untreated sea water; no movement over 80 seconds; serial dilution (MED)
Protocol: 3—Activity In Vitro Against Lepeophtheirus Salmonis at Copeodid Stage
Sea lice copepodids were used to seed a 96-well plate containing the test substances to be evaluated for antiparasitic activity. Each compound was tested by serial dilution in order to determine its minimal effective dose (MED). Copepodids were left in contact with the test compound diluted in sea water for 1 hour. They were then incubated in untreated sea water for 48 h. Efficacy against sea lice was then confirmed if no copepodid moved over a period of 80 seconds.

`Cc1cc(/C=C/C(=O)NC(c2cccc(C(F)(F)F)c2)C(F)(F)F)sc1C(=O)NC1CC1` (stereo not drawn) [Example 2.4] and `O=C(/C=C/c1ccc(C(=O)NC2CC2)c2ccccc12)NC(c1cccc(C(F)(F)F)c1)C(F)(F)F` (stereo not drawn) [Example 4.1] are the same in “efficacy (EC80)” value: 50 ppb for the first, 50 ppb for the second.

`CCN1OCC(NC(=O)c2ccc(/C=C/C(=O)NC(c3cccc(C(F)(F)F)c3)C(F)(F)F)c3ccccc23)C1=O` (stereo not drawn) [Example 1.34] and `O=C(/C=C/c1ccc(C(=O)NC2CON(CC(F)(F)F)C2=O)c2ccccc12)NC(c1cccc(C(F)(F)F)c1)C(F)(F)F` (stereo not drawn) [Example 1.46] are the same in “efficacy (EC80)” value: 50 ppb for the first, 50 ppb for the second.

Going from `N#CC1(NC(=O)c2ccc(/C=C/C(=O)NC(c3cccc(C(F)(F)F)c3)C(F)(F)F)c3ccccc23)CCC1` (stereo not drawn) [Example 1.44] to `N#CC1(NC(=O)c2ccc(/C=C/C(=O)NC(c3cccc(C(F)(F)F)c3)C(F)(F)F)c3ccccc23)CC1` (stereo not drawn) [Example 1.26], the “efficacy (EC80)” value falls from 50 ppb to 0.5 ppb.

Going from `CC1(NC(=O)c2ccc(/C=C/C(=O)NC(c3cccc(C(F)(F)F)c3)C(F)(F)F)c3ccccc23)CCC1` (stereo not drawn) [Example 1.41] to `CC(C)NC(=O)c1ccc(/C=C/C(=O)NC(c2cccc(C(F)(F)F)c2)C(F)(F)F)c2ccccc12` (stereo not drawn) [Example 1.27], the “efficacy (EC80)” value rises from 5 ppb to 50 ppb.

First: O=C(/C=C/c1ccc(C(=O)NC2CC2)c2ccccc12)NC(c1cccc(C(F)(F)F)c1)C(F)(F)F (stereo not drawn) [Example 1.5]
Second: O=C(/C=C/c1ccc(C(=O)NC2CSC2)c2ccccc12)NC(c1cccc(C(F)(F)F)c1)C(F)(F)F (stereo not drawn) [Example 1.10]
The “efficacy (EC80)” value of the first is lower: 5 ppb for the first, 50 ppb for the second.

Going from `O=C(/C=C/c1ccc(C(=O)NC2CC2)c2ccccc12)NC(c1cccc(F)c1)C(F)(F)F` (stereo not drawn) [Example 1.65] to `O=C(/C=C/c1ccc(C(=O)NC2CC2)c2ccccc12)NC(c1cccc(Br)c1)C(F)(F)F` (stereo not drawn) [Example 1.56], the “efficacy (EC80)” value rises from 5 ppb to 50 ppb.

Going from `O=C(/C=C/c1ccc(C(=O)NC2CC2)c2ccccc12)NC(c1cc(Cl)c(Cl)c(Cl)c1)C(F)(F)F` (stereo not drawn) [Example 1.64] to `O=C(/C=C/c1ccc(C(=O)NC2CC2)c2ccccc12)NC(c1ccc(Cl)c(Cl)c1)C(F)(F)F` (stereo not drawn) [Example 1.63], the “efficacy (EC80)” value rises from 5 ppb to 50 ppb.

Compared with `O=C(/C=C/c1ccc(C(=O)NCC2CC2)c2ccccc12)NC(c1cccc(C(F)(F)F)c1)C(F)(F)F` (stereo not drawn) [Example 1.1, N-(cyclopropylmethyl)-4-[(1E)-2-({2,2,2-trifluoro-1-[3-(trifluoromethyl)phenyl]ethyl}carbamoyl)eth-1-en-1-yl]naphthalene-1-carboxamide], `O=C(/C=C/c1ccc(C(=O)NCC2CSC2)c2ccccc12)NC(c1cccc(C(F)(F)F)c1)C(F)(F)F` (stereo not drawn) [Example 1.43] is lower in “efficacy (EC80)” value: 50 ppb for the first, 5 ppb for the second.

First: O=C(/C=C/c1ccc(C(=O)NC2CC2)c2ccccc12)NC(c1cccc(OC(F)(F)F)c1)C(F)(F)F (stereo not drawn) [Example 1.61]
Second: O=C(/C=C/c1ccc(C(=O)NC2CC2)c2ccccc12)NC(c1ccc(Cl)c(C(F)(F)F)c1)C(F)(F)F (stereo not drawn) [Example 1.66]
The “efficacy (EC80)” value of the first is lower: 0.5 ppb for the first, 50 ppb for the second.

`O=C(/C=C/c1ccc(C(=O)NC2CC2)c2ccccc12)NC(c1cc(Cl)cc(Cl)c1)C(F)(F)F` (stereo not drawn) [Example 1.62] and `Cc1cccc(C(NC(=O)/C=C/c2ccc(C(=O)NC3CC3)c3ccccc23)C(F)(F)F)c1` (stereo not drawn) [Example 1.58] are the same in “efficacy (EC80)” value: 50 ppb for the first, 50 ppb for the second.

`O=C(/C=C/c1ccc(C(=O)NC2CC2)c2ccccc12)NC(c1cccc2ccccc12)C(F)(F)F` (stereo not drawn) [Example 1.82] and `O=C(/C=C/c1ccc(C(=O)NC2CC(F)C2)c2ccccc12)NC(c1cccc(C(F)(F)F)c1)C(F)(F)F` (stereo not drawn) [Example 1.36] are the same in “efficacy (EC80)” value: 50 ppb for the first, 50 ppb for the second.

`O=C(/C=C/c1ccc(C(=O)NC2CC2)c2cccnc12)NC(c1cccc(C(F)(F)F)c1)C(F)(F)F` (stereo not drawn) [Example 3.2] and `O=C(/C=C/c1ccc(C(=O)NC2CC(F)(F)C2)c2ccccc12)NC(c1cccc(C(F)(F)F)c1)C(F)(F)F` (stereo not drawn) [Example 1.35] are the same in “efficacy (EC80)” value: 50 ppb for the first, 50 ppb for the second.

`O=C(C=Cc1ccc(C(=O)NC2CC2F)c2ccccc12)NC(c1cccc(C(F)(F)F)c1)C(F)(F)F` (stereo not drawn) [Example 1.40] and `CCNC(=O)c1ccc(/C=C/C(=O)NC(c2cccc(C(F)(F)F)c2)C(F)(F)F)c2ccccc12` (stereo not drawn) [Example 1.13] are the same in “efficacy (EC80)” value: 50 ppb for the first, 50 ppb for the second.

`O=C(/C=C/c1ccc(C(=O)NCc2ccco2)c2ccccc12)NC(c1cccc(C(F)(F)F)c1)C(F)(F)F` (stereo not drawn) [Example 1.3] was tested, and the “efficacy (EC80)” value was 50 ppb.
